This is an account of results in PMC4696656, “Insights into the Mechanism of Action of Bactericidal Lipophosphonoxins” (PLoS ONE, 2015).

The structures appear in SMILES notation.

For the experiment, the system named is B. subtilis 168. Kind of experiment: Selection for resistant strains, stepwise two-fold increased concentration. Conditions: 24 h cultures, two-fold increased concentration each transfer; rifampicin from 0.01 mg/L, DR5026 from 0.5 mg/L. It is filed as cell-based, Bacillus subtilis. How it is done:
A) B. subtilis. […] Then, the growth of the culture was evaluated by OD600nm and an aliquot of the culture was transferred to a new tube with fresh medium and a two-fold increased concentration of the active compound. This template was followed until no growth was detected for DR5026 or until B. subtilis grew at 5 mg/L of rifampicin.

For the molecule `CCCCCCCCCCCCCCCCOP(=O)(CCN1C[C@@H](O)[C@H](O)C1)OC[C@H]1O[C@@H](n2ccc(=O)[nH]c2=O)[C@H](O)[C@@H]1O` (stereo partly shown) [DR5026], the development of resistance result is “failed to obtain cells that would grow at concentrations exceeding the MIC”.
